Laboratory results: PubChem BioAssay (NCI)
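Grown in 96-well plates, cells were treated for 48 hours with each compound at five concentrations. Insufficient inhibition: endpoint recorded as highest concentration tested. TGI marks complete inhibition of growth.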

How the values were obtained:
Assay in all cases: growth of human tumour cells (NCI), 48 h
[1] = system: 786-0 renal
[2] = system: A498 renal
[3] = system: A549 NSCLC
[4] = system: ACHN renal
[5] = system: BT-549 breast
[6] = system: CAKI-1 renal
[7] = system: CCRF-CEM leukemia
[8] = system: COLO 205 colon
[9] = system: DU-145 prostate
[10] = system: EKVX NSCLC
[11] = system: HCC-2998 colon
[12] = system: HCT-116 colon
[13] = system: HCT-15 colon
[14] = system: HL-60(TB) leukemia
[15] = system: HOP-62 NSCLC
[16] = system: HOP-92 NSCLC
[17] = system: HS 578T breast
[18] = system: HT29 colon
[19] = system: K-562 leukemia
[20] = system: KM12 colon
[21] = system: LOX IMVI melanoma
[22] = system: M14 melanoma
[23] = system: MALME-3M melanoma
[24] = system: MCF7 breast
[25] = system: MDA-MB-231 breast
[26] = system: MDA-MB-435
[27] = system: MDA-N
[28] = system: MOLT-4 leukemia
[29] = system: NCI-H226 lung
[30] = system: NCI-H23 lung
[31] = system: NCI-H460 lung
[32] = system: NCI-H522 lung
[33] = system: NCI/ADR-RES ovarian
[34] = system: OVCAR-3 ovarian
[35] = system: OVCAR-4 ovarian
[36] = system: OVCAR-5 ovarian
[37] = system: OVCAR-8 ovarian
[38] = system: PC-3 prostate
[39] = system: RXF 393 renal
[40] = system: SF-268 CNS
[41] = system: SF-295 CNS
[42] = system: SF-539 CNS
[43] = system: SK-MEL-2 melanoma
[44] = system: SK-MEL-28 melanoma
[45] = system: SK-MEL-5 melanoma
[46] = system: SK-OV-3 ovarian
[47] = system: SN12C renal
[48] = system: SNB-19 CNS
[49] = system: SNB-75 CNS
[50] = system: SR leukemia
[51] = system: SW-620 colon
[52] = system: T-47D breast
[53] = system: TK-10 renal
[54] = system: U251 CNS
[55] = system: UACC-257 melanoma
[56] = system: UACC-62 melanoma
[57] = system: UO-31 renal

c1cc(-c2ccc(-c3ccc(C4=NCCCN4)cc3)o2)ccc1C1=NCCCN1
TGI [1]: > 100 µM | TGI [2]: 13.4 µM | TGI [3]: > 100 µM | TGI [4]: > 100 µM | TGI [5]: > 100 µM | TGI [6]: > 100 µM | TGI [7]: > 100 µM | TGI [8]: > 100 µM | TGI [9]: > 100 µM | TGI [10]: > 100 µM | TGI [11]: > 100 µM | TGI [12]: > 100 µM | TGI [13]: > 100 µM | TGI [14]: > 100 µM | TGI [15]: > 100 µM | TGI [16]: > 100 µM | TGI [17]: > 100 µM | TGI [18]: > 100 µM | TGI [19]: > 100 µM | TGI [20]: > 100 µM | TGI [21]: > 100 µM | TGI [22]: > 100 µM | TGI [23]: > 100 µM | TGI [24]: > 100 µM | TGI [25]: > 100 µM | TGI [26]: > 100 µM | TGI [27]: > 100 µM | TGI [28]: > 100 µM | TGI [29]: > 100 µM | TGI [30]: > 100 µM | TGI [31]: > 100 µM | TGI [32]: > 100 µM | TGI [33]: > 100 µM | TGI [34]: > 100 µM | TGI [35]: > 100 µM | TGI [36]: > 100 µM | TGI [37]: > 100 µM | TGI [38]: > 100 µM | TGI [39]: > 100 µM | TGI [40]: > 100 µM | TGI [41]: > 100 µM | TGI [42]: > 100 µM | TGI [43]: > 100 µM | TGI [44]: > 100 µM | TGI [45]: > 100 µM | TGI [46]: > 100 µM | TGI [47]: 95.7 µM | TGI [48]: > 100 µM | TGI [49]: > 100 µM | TGI [50]: > 100 µM | TGI [51]: > 100 µM | TGI [52]: > 100 µM | TGI [53]: > 100 µM | TGI [54]: > 100 µM | TGI [55]: > 100 µM | TGI [56]: > 100 µM | TGI [57]: > 100 µM
